Assay results: BindingDB's records for doi:10.1021/jm00127a026 (Medical University of South Carolina, 1989)

Experiment: The apparent Km of compound as a substrate for partially purified mouse liver Folyl-polyglutamate synthase
Conditions: read-out: Ki
Molecule `NCCCC(NC(=O)c1ccc(SCc2ccc3nc[nH]c(=O)c3c2)cc1)C(=O)O` (stereo not given) has an apparent Km of 0.42 µM. Work on `NCCCC(NC(=O)c1ccc(NCc2ccc3nc(N)nc(N)c3c2Cl)cc1)C(=O)O` (stereo not given) yielded an apparent Km of 0.0017 µM. For `NCCCC(NC(=O)c1ccc(OCc2ccc3nc(N)[nH]c(=O)c3c2)cc1)C(=O)O` (stereo not given), the apparent Km was 5.9 µM. Molecule `NCCCC(NC(=O)c1ccc(SCc2ccc3nc(N)[nH]c(=O)c3c2)cc1)C(=O)O` (stereo not given) has an apparent Km of 2.8 µM. Work on `NCCCC(NC(=O)c1ccc(OCc2ccc3nc[nH]c(=O)c3c2)cc1)C(=O)O` (stereo not given) yielded an apparent Km of 1.2 µM.
